#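 Compound exposure: 48 hours, 5 concentrations, 96-well plates. Here, GI50 denotes the concentration required for 50% inhibition of growth.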 Activity calls are given as the source filed them. No stated cut-off is given here; in the data, active = GI50 up to about 1.1 µM and inactive = higher.
# Experiments:
# Experiment in all cases: inhibition of tumour cell growth, NCI panel, 48 h
# [1] = tested on: A498
# [2] = tested on: TK-10
# [3] = tested on: NCI-H522
# [4] = tested on: HT-29
# [5] = tested on: Malme-3M
# [6] = tested on: HOP-62
# [7] = tested on: HL-60
# [8] = tested on: A549
# [9] = tested on: NCI-H460
# [10] = tested on: UACC-62
# [11] = tested on: RPMI-8226
# [12] = tested on: SK-OV-3
# [13] = tested on: 786-0
# [14] = tested on: HOP-92
# [15] = tested on: SK-MEL-5
# [16] = tested on: COLO 205
# [17] = tested on: IGROV-1
# [18] = tested on: SF-268
# [19] = tested on: PC-3
SMILES,GI50 [1],GI50 [2],GI50 [3],GI50 [4],GI50 [5],GI50 [6],GI50 [7],GI50 [8],GI50 [9],GI50 [10],GI50 [11],GI50 [12],GI50 [13],GI50 [14],GI50 [15],GI50 [16],GI50 [17],GI50 [18],GI50 [19]
Clc1ccc(OCc2nnc3n2N=C(c2ccc(Br)cc2)CS3)cc1,5.36 µM (inactive),14.4 µM (inactive),7.1 µM (inactive),36.2 µM (inactive),28 µM (inactive),9.82 µM (inactive),> 100 µM (inactive),25.5 µM (inactive),17.7 µM (inactive),27.1 µM (inactive),30.3 µM (inactive),15 µM (inactive),16.4 µM (inactive),11.2 µM (inactive),> 10 µM (inactive),–,–,–,–
CCN1C(=O)C(=CN)C(=O)N(CC)C1=O,> 100 µM (inactive),44.5 µM (inactive),> 100 µM (inactive),> 100 µM (inactive),> 100 µM (inactive),> 100 µM (inactive),> 100 µM (inactive),> 100 µM (inactive),> 100 µM (inactive),> 100 µM (inactive),–,> 100 µM (inactive),> 100 µM (inactive),38.8 µM (inactive),> 100 µM (inactive),> 100 µM (inactive),> 100 µM (inactive),> 100 µM (inactive),–
COc1ccc(C2S/C(=C\c3ccc(OC)cc3OC)C(=O)N2NC(=O)Cc2ccccc2)cc1 (stereo not given),> 100 µM (inactive),> 100 µM (inactive),> 100 µM (inactive),> 100 µM (inactive),> 100 µM (inactive),> 100 µM (inactive),97.9 µM (inactive),> 100 µM (inactive),> 100 µM (inactive),> 100 µM (inactive),> 100 µM (inactive),> 100 µM (inactive),> 100 µM (inactive),> 100 µM (inactive),> 100 µM (inactive),> 100 µM (inactive),> 100 µM (inactive),> 100 µM (inactive),–
COc1cc(OC)c2c(c1)C(=O)C(CC(C)O)=CC2=O (stereo not given),17.8 µM (inactive),19.9 µM (inactive),14.4 µM (inactive),19.1 µM (inactive),22.7 µM (inactive),19.4 µM (inactive),5.47 µM (inactive),22.3 µM (inactive),23.6 µM (inactive),11.8 µM (inactive),11.5 µM (inactive),18 µM (inactive),16.2 µM (inactive),11.1 µM (inactive),14.7 µM (inactive),18.6 µM (inactive),18.2 µM (inactive),18.2 µM (inactive),–
COc1c(CC(C)=O)ccc2c1C(=O)c1ccc(C=O)c(OC(C)=O)c1C2=O,27.3 µM (inactive),27.5 µM (inactive),2.15 µM (inactive),13.9 µM (inactive),12.7 µM (inactive),–,5.06 µM (inactive),31.8 µM (inactive),23.3 µM (inactive),4.55 µM (inactive),8.45 µM (inactive),55.5 µM (inactive),6.32 µM (inactive),18.9 µM (inactive),14.1 µM (inactive),16.1 µM (inactive),18.9 µM (inactive),4.38 µM (inactive),–
CC1=CC(=O)/C(=C/NC(N)=S)C(=O)O1,–,10.1 µM (inactive),> 100 µM (inactive),–,–,97.5 µM (inactive),1.72 µM (inactive),> 100 µM (inactive),> 100 µM (inactive),> 100 µM (inactive),–,43.2 µM (inactive),> 100 µM (inactive),15.3 µM (inactive),92 µM (inactive),> 100 µM (inactive),> 100 µM (inactive),> 100 µM (inactive),> 100 µM (inactive)
CC(C)(c1ccccc1)c1ccc(Oc2ccc3c(c2)-c2nc-3nc3[nH]c(nc4nc(nc5[nH]c(n2)c2ccc(Oc6ccc(C(C)(C)c7ccccc7)cc6)cc52)-c2cc(Oc5ccc(C(C)(C)c6ccccc6)cc5)ccc2-4)c2ccc(Oc4ccc(C(C)(C)c5ccccc5)cc4)cc32)cc1,> 100 µM (inactive),80.2 µM (inactive),86.9 µM (inactive),> 100 µM (inactive),> 100 µM (inactive),64.6 µM (inactive),> 100 µM (inactive),> 100 µM (inactive),> 100 µM (inactive),> 100 µM (inactive),> 100 µM (inactive),> 100 µM (inactive),> 100 µM (inactive),17.8 µM (inactive),> 100 µM (inactive),> 100 µM (inactive),> 100 µM (inactive),–,–
CCOc1ccccc1NC(=O)C(C#N)C1=C(Cl)C(=O)c2ccccc2C1=O (stereo not given),19.8 µM (inactive),2.22 µM (inactive),2.09 µM (inactive),2.29 µM (inactive),1.57 µM (inactive),6.04 µM (inactive),0.486 µM (active),1.95 µM (inactive),1.79 µM (inactive),1.83 µM (inactive),1.58 µM (inactive),26.2 µM (inactive),1.79 µM (inactive),2.05 µM (inactive),1.5 µM (inactive),1.98 µM (inactive),2.13 µM (inactive),2.11 µM (inactive),–

# — ChEMBL document CHEMBL1201862, “PubChem BioAssay data set” (2004)
